# Source: patent US20190209506A1, “METHODS OF REDUCING OR PREVENTING OXIDATION OF LDL OR LIPID MEMBRANES IN A SUBJECT IN NEED THEREOF” (Amarin Pharmaceuticals Ireland Limited, priority 2018, published 2019)
# Columns and labels:
# [1] = test system: human sdLDL; assay: Copper-induced sdLDL oxidation (Example 12); format: biochemical; conditions: 10.0 μM; copper-induced oxidation 1 hour
# Experimental: (§1) All samples, with the exception of non-oxidized sdLDL controls, were subjected to copper-induced oxidation for 1 hour. Human umbilical vein endothelial cells (HUVECs) were incubated with the various sdLDL samples, stimulated with calcium, and monitored for nitric oxide (NO) and peroxynitrite (ONOO^−) release using nanosensor technology.
# [2] = test system: HUVECs; assay: NO release from HUVECs incubated with treated, oxidized sdLDL (Example 12); format: cell-based, human; conditions: sdLDL treated at 10.0 μM
# Experimental: as §1
# [3] = test system: human sdLDL; assay: Copper-induced sdLDL oxidation with fatty acids, TBARS/MDA (Example 14); format: biochemical; conditions: 1.0 μM
# Experimental: Venous blood was collected from healthy volunteers into vacutainer tubes. Plasma was separated by centrifugation at 3000 g for 25 min at 4° C. and adjusted to a density of 1.020 g/mL with KBr. sdLDL was isolated from the plasma of healthy volunteers by iodixanol density gradient ultracentrifugation and adjusted to a final apolipoprotein concentration of 2 mg/mL. An aliquot of sdLDL (50 μL) was incubated with either 10 μL vehicle (ethanol) or 10 μL FA (EPA, ETE, AA, EA, DHA, DPA, ALA, LA or SA) treatment stock solution (100 μM) for 30 min at 37° C. Oxidation was initiated with addition of initiator CuSO4 (10.0 μM). At certain time points (0, 40, 60, and 120 minutes), […] were removed from each subfraction and combined with 1.0 mL thiobarbituric acid (0.5%), 10 μL trichloroacetic acid (10%), 10 μL butylated hydroxytoluene (BHT; 35 mM in ethanol), and 10 μL ethylenediaminetetraacetic acid (EDTA; 5 mM). Sample aliquots were incubated at 100° C. for 30 min and then assayed for the formation of thiobarbituric acid reactive substances (TBARS), which have a molar absorptivity (ε) value of 1.56×105 M^−1 cm^−1 at 532 nm and are largely derived from the reaction of thiobarbituric acid with MDA, a reactive aldehyde produced by sdLDL oxidation. Sample TBARS concentrations were determined spectrophotometrically by measuring sample absorbances against a standard curve derived from the hydrolysis of 1,1,3,3-tetramethoxypropane.
# [4] = LOOH formation in membrane vesicles, fatty acid comparison (Example 16); format: biochemical; conditions: 5 μM
# Experimental: Iodometric approaches were used to measure in vitro LOOH formation in membrane vesicles reconstituted as binary mixtures of cholesterol and dilinoleoyl phosphatidylcholine. Vesicles were prepared at a cholesterol-to-phospholipid mole ratio of 0.6:1 and subjected to autoxidation (e.g., lipid oxidation) at 37° C. Lipid oxidation was stimulated with 0.1 μM copper sulfate for 48 hours. All FAs were delivered at 5 and 10 μM.
# [5] = LOOH formation in membrane vesicles, EPA dose dependence (Example 18); format: biochemical; conditions: after four hours
# Text: Iodometric analyses were used to measure LOOH formation in membrane vesicles reconstituted as binary mixtures of cholesterol and dilinoleoyl phosphatidylcholine.
smiles,measurement,setting,value
"CC/C=C\C/C=C\C/C=C\C/C=C\C/C=C\CCCC(=O)O [EPA, cis-5,8,11,14,17-eicosapentaenoic acid]",reduction of sdLDL oxidation compared to vehicle,[1],> 90%
same,increase of NO release compared to non-oxidized sdLDL,[2],23%
same,increase of NO release compared to oxidized LDL,[2],53%
same,inhibition of lipoprotein oxidation versus vehicle,[3]; 40 minutes,70%
same,inhibition of oxidation compared to vehicle,[3]; 60 minutes,44%
same,MDA Equivalents (Mean ± SD),[3]; time point 0 min,0.30 ± 0.04 µM
same,MDA Equivalents (Mean ± SD),[3]; time point 40 min,3.14 ± 0.19 µM
same,MDA Equivalents (Mean ± SD),[3]; time point 60 min,6.42 ± 0.24 µM
same,MDA Equivalents (Mean ± SD),[3]; time point 120 min,12.46 ± 0.75 µM
same,activity of EPA greater than ALA by,[4],213%
same,activity of EPA greater than DHA by,[4],279%
same,activity of EPA greater than DPA by,[4],121%
same,activity of EPA greater than ETE by,[4],174%
same,reduction of LOOH levels compared to the vehicle,"[4]; 0.1 μM copper sulfate, 48 hours",77%
same,inhibition of LOOH formation,"[5]; 1.0 μM, 10 μM copper sulfate",6%
same,IC50,[5]; read-out: half-maximum concentration of LOOH inhibition,~6 µM
same,inhibition of LOOH formation,[5]; maximum concentration (range 1.0 to 10.0 μM),74%
